Data: patent US8906897B2, “Antimicrobial agents based on hemin derivatives” (Obschestvo S Ogranichennoi Otvetstvennostiyu …, priority 2009, dated 2014)
Non-standard residues stand in square brackets, D forms with d. Residues, ends and D or L forms follow the SMILES beside them. Orn = NCCC[C@H](N)C(=O)O

Assays:
human leukocytes = assay: Cytotoxic activity against human leukocytes; conditions: for toxic effect on human blood leukocytes (in words): concentrations of up to 1 mM, 3 h
Procedure: Total leukocytes were isolated from human blood by unforced sedimentation using freshly collected venous blood from a healthy donor.
Blood (10 mL) added with 10 units/mL heparin was exposed for 2.5 h in the dark at a temperature of 15 to 18° C. A light-colored liquid supernatant (4 mL) was collected over the layer of sedimenting erythrocytes, washed three times with balanced Hanks's salt solution, and resuspended in the RPMI-1640 medium (added with 8% fetal bovine serum, 2 mM L-glutamine, and 10 mM HEPES; hereinafter, the complete medium).
The concentrations of leukocytes and erythrocytes in the suspension were determined by counts in Goryachev's chamber, after which the suspension was adjusted to a leukocyte concentration of (1.0±0.1)×10^6 cells/mL with the complete medium.
To determine the cytotoxicity of the tested compounds for human leukocytes, the cell suspension was transferred to wells of sterile 96-well plates, tested compounds were added with serial twofold dilutions (the range of tested concentrations was from 3.2 to 100 μM for GrD and gramicidin S; from 8 to 500 μM for compound XIII; and from 8 to 1000 μM for compounds V, VI, VII, VIII, IX, X, XI, XIV, XV, XIX, and Hem), and the mixture was carefully stirred. The experiment was performed in two replicas.
As controls served cells added with an equivalent amount of the solvent in which tested compounds were prepared, namely: water for compounds VII and X; an aqueous solution of DMSO for compounds V, VI, VIII, and IX; and DMSO for GrD, gramicidin S, Hem, XI, XIII, XIV, XV, and XIX. An additional control was an additive-free leukocyte suspension.
Cells were incubated with tested compounds for 3 h (37° C., 5% CO2, 100% humidity). Leukocyte death values were quantified using fluorescence microscopy. Staining with propidium iodide (it permeates only into dead cells nuclei) and Hoechst 33342 (it stains all nuclei) was used to recognize dead and living cells. Cells were incubated for 15 min in plates with propidium iodide and Hoechst 33342 (37° C., 5% CO2), and then the plates were placed under a microscope for analysis.
The dead cell fraction was derived from the fluorescence images of cells obtained in the blue (Hoechst 33342) and red (propidium iodide) spectral ranges using an Axio Observer (Zeiss, Germany) fluorescence microscope equipped with a 10× objective lens (Plan-Neofluar 10×/0.3). The following sets of fluorescence filters were used. For propidium iodide: a 530/585-nm bandpass excitation filter, a 600-nm cut-off dichroic minor, and a 615-nm longpass barrier filter for analysis. For Hoechst 33342: a 359/372-nm bandpass excitation filter, a 395-nm cut-off dichroic mirror, and a 397-nm longpass barrier filter for analysis.
A digital camera recorded three types of cell images: (a) an image in the transmitted white light; (b) a blue fluorescence image obtained with UV excitation, and (c) a red fluorescence image obtained with green light excitation. At least four fields of view were photographed per well in various regions of a well.

[1] = tested on: Cryptococcus neoformans No. 3465; assay: Antifungal activity, culture growth with pH indicator; assay type: cell-based; design: key: (−) No growth; the indicator is blue; (±) Weak growth; the indicator is yellow, but the precipitate of grown cells looks as a diffuse spot; (+) Strong growth; the indicator is yellow, and the cell precipitate looks as a compact spot
Procedure: (§1) The subjects of action were Cryptococcus neoformans No. 3465 museum strain cells and Candida albicans No. 927 museum strain cells grown for one day on a glucose-peptone-yeast medium at 32° C. The reference compounds were the following antimycotics: pimafucin, amphotericin, and fluconazole.
(§2) Experiments were carried out on round-bottomed 96-well plates (Lenmedpolimer) in two replicas. To the first column (0), added was 10 μL of the stock solution of a water-soluble agent with concentrations of 10^−2 to 10^−3 mol/L; to the second column, added was also the same 10 μL plus 10 μL of the solvent corresponding to the given compound, suspended, 10 μL was transferred to the next well, and so on to the 8th well of the row. Stock solutions of water-insoluble compounds of general formula (I) (compounds V, VIII, XII, XIII, XIV, and hemin) were prepared in DMSO and were diluted with DMSO and the medium. DMSO concentrations in the reaction mixture in a well were ≦5%.
(§3) Then, to every well added was 190 μL of a Cr. neoformans cell culture suspension in a synthetic nutritional medium (so that the final cell concentration was approximately 10^3 CFU/mL), this medium containing Bromocresol Blue as a pH-indicator (pH: 5.5; indicator color: blue). As pH reduced to 4.5, the indicator in the culture changed its color to yellow, thereby indicating fungal cell growth. The synthetic medium comprised the following components: salts, amino acids, microelements, vitamins, an antibiotic, and glucose (30 components altogether) [Yarrow, D., “Methods for the Isolation, Maintenance and Identification of Yeasts,” in: The Yeasts. A Taxonomic Study, Ed. by Kurtsman, C. P, and Fell, M., Elsevier, 1998, pp. 77-100]. After being inoculated with a Cr. neoformans cell suspension, the plate was incubated at 32° C. for 1 h with stirring, then transferred to a stationary thermostat and incubated for two and five days at 27° C. After being inoculated with a C. albicans cell suspension, the plates were incubated for 1 h at 32° C. with stirring, then transferred to a stationary thermostat and incubated for one and four days at 27° C.

Candida albicans No. 927 = assay: as above; assay type: cell-based; design: key to Test culture growth at various dilutions of the agent: (−) No growth; the indicator is blue; (±) Weak growth; the indicator is yellow, but the precipitate of grown cells looks as a diffuse spot; (+) Strong growth; the indicator is yellow, and the cell precipitate looks as a compact spot
Procedure: as §1, §2, §3

[2] = dilution : 16 of 5.00 × 10^−4 M
[3] = dilution : 32 of 5.00 × 10^−4 M
[4] = dilution : 64 of 5.00 × 10^−4 M
[5] = dilution : 128 of 5.00 × 10^−4 M

Compound	toxic effect on human blood leukocytes (in words) (human leukocytes)	Test culture growth at various dilutions of the agent on day 2 ([1]; dilution 0: 5.00 × 10^−4 M)	Test culture growth at various dilutions of the agent on day 2 ([1]; dilution : 2 of 5.00 × 10^−4 M)	Test culture growth at various dilutions of the agent on day 2 ([1]; dilution : 4 of 5.00 × 10^−4 M)	Test culture growth at various dilutions of the agent on day 2 ([1]; dilution : 8 of 5.00 × 10^−4 M)	Test culture growth at various dilutions of the agent on day 2 [1, 2]	Test culture growth at various dilutions of the agent on day 2 [1, 3]	Test culture growth at various dilutions of the agent on day 2 [1, 4]	Test culture growth at various dilutions of the agent on day 2 [1, 5]	Test culture growth at various dilutions of the agent (Candida albicans No. 927; dilution 0: 1 × 10^−4 M)	Test culture growth at various dilutions of the agent (Candida albicans No. 927; dilution : 2 of 1 × 10^−4 M)	Test culture growth at various dilutions of the agent (Candida albicans No. 927; dilution : 4 of 1 × 10^−4 M)	Test culture growth at various dilutions of the agent (Candida albicans No. 927; dilution : 8 of 1 × 10^−4 M)	Test culture growth at various dilutions of the agent (Candida albicans No. 927; dilution : 16 of 1 × 10^−4 M)	Test culture growth at various dilutions of the agent (Candida albicans No. 927; dilution : 32 of 1 × 10^−4 M)	Test culture growth at various dilutions of the agent (Candida albicans No. 927; dilution : 64 of 1 × 10^−4 M)	further results
CC(C)C[C@@H]1NC(=O)[C@H](CCCN)NC(=O)[C@H](C(C)C)NC(=O)[C@@H]2CCCN2C(=O)[C@@H](Cc2ccccc2)NC(=O)[C@H](CC(C)C)NC(=O)[C@H](CCCN)NC(=O)[C@H](C(C)C)NC(=O)[C@@H]2CCCN2C(=O)[C@@H](Cc2ccccc2)NC1=O [Gramicidin S, reference compound] (cyclo(L[dF]PV[Orn]L[dF]PV[Orn]))	fully due to the toxic effect of the solvent																
C[C@@H]1[C@H](O)[C@@H](C)/C=C/C=C/C=C/C=C/C=C/C=C/C=C/[C@H](O[C@@H]2O[C@H](C)[C@@H](O)[C@H](N)[C@@H]2O)C[C@@H]2O[C@](O)(C[C@@H](O)C[C@@H](O)[C@H](O)CC[C@@H](O)C[C@@H](O)CC(=O)O[C@H]1C)C[C@H](O)[C@H]2C(=O)O [Amphotericin B, reference compound]		−**	−	−	−	−	−	−	−								
C[C@@H]1C/C=C/C=C/C=C/C=C/[C@H](O[C@@H]2O[C@H](C)[C@@H](O)[C@H](N)[C@@H]2O)C[C@@H]2O[C@](O)(C[C@@H](O)C[C@H]3O[C@@H]3/C=C/C(=O)O1)C[C@H](O)[C@H]2C(=O)O [Pimafucin, reference compound]										−	−	−	−	−	+	+	
N^α-[6(7)-(Protohemin IX)-yl]-ArgArgTrpTrpArgPhe-OH ({protohemin IX}-RRWWRF-OH) [Compound XX]										±	±	±	±	±	±	±	
OC(Cn1cncn1)(Cn1cncn1)c1ccc(F)cc1F [Fluconazole, reference compound]		±**	±	±	+	+	+	+	+								
C=CC1=C(C)c2cc3[n-]c(cc4nc(cc5[n-]c(cc1n2)c(C)c5CCC(=O)NCCC(=O)N[C@@H](Cc1c[nH]cn1)C(=O)O)C(CCC(=O)NCCC(=O)N[C@@H](Cc1c[nH]cn1)C(=O)O)=C4C)c(C)c3C=C.[Cl-].[Fe+3] [Compound X]	did not cause the death																Death of leukocytes in the presence of 1 mM of compound (human leukocytes; 1 mM, 3 h incubation): 4.9 ± 0.3%
